For series [1], the target named is nAChR formed by the α7 subunit isoform (Rattus norvegicus, UniProt Q05941). Nature of the series: biochemical. The series is classed as binding.
Series [2] has as its target nAChRs comprised of α4 and β2 subunits (Rattus norvegicus, UniProt P09483+P12390). Nature of the series: In vitro inhibition of 3H-cytisine binding. The method, then:
In Vitro Inhibition of ^3H-cytisine Binding
The predominant subtype with high affinity for nicotine is comprised of α4 and β2 subunits. nAChRs of the latter type can selectively be labelled by the nicotine agonist ^3H-cytisine.
Tissue Preparation: Preparations are performed at 0-4° C. unless otherwise indicated. […] The homogenate is centrifuged at 27,000×g for 10 min. The supernatant is discarded and the pellet is resuspended in fresh buffer and centrifuged a second time. The final pellet is resuspended in fresh buffer (35 ml per g of original tissue) and used for binding assays.
Assay: Aliquots of 500 μl homogenate are added to 25 μl of test solution and 25 μl of ^3H-cytisine (1 nM, final concentration), mixed and incubated for 90 min at 2° C. Non-specific binding is determined using (−)-nicotine (100 μM, final concentration). After incubation the samples are added 5 ml of ice-cold buffer and poured directly onto Whatman GF/C glass fibre filters under suction and immediately washed with 2×5 ml ice-cold buffer. The amount of radioactivity on the filters is determined by conventional liquid scintillation counting. Specific binding is total binding minus non-specific binding.

For orientation: melting point means the temperature of the solid-liquid transition. Usually IC50 stands for the point on the concentration scale where inhibition reaches its midpoint.

Where a name gives a salt, the structure may show the parent alone. Read-outs that look alike come from different tables or passages of the source.

nAChR formed by the α7 subunit isoform, sequence (Q05941 23-502): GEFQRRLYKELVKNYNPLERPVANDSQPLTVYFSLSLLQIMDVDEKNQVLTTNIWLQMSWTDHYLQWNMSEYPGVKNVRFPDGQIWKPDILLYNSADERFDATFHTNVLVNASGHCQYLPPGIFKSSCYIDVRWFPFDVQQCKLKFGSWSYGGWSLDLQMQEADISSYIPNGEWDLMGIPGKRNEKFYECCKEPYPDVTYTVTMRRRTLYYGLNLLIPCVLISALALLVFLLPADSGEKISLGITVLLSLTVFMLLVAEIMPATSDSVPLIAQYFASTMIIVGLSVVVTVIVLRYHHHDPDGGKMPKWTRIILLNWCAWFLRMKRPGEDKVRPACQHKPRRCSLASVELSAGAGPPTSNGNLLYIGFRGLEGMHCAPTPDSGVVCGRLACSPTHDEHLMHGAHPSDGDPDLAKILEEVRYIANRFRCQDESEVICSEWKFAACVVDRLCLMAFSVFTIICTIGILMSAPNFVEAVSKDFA
nAChRs comprised of α4 and β2 subunits, sequence (P09483 31-630): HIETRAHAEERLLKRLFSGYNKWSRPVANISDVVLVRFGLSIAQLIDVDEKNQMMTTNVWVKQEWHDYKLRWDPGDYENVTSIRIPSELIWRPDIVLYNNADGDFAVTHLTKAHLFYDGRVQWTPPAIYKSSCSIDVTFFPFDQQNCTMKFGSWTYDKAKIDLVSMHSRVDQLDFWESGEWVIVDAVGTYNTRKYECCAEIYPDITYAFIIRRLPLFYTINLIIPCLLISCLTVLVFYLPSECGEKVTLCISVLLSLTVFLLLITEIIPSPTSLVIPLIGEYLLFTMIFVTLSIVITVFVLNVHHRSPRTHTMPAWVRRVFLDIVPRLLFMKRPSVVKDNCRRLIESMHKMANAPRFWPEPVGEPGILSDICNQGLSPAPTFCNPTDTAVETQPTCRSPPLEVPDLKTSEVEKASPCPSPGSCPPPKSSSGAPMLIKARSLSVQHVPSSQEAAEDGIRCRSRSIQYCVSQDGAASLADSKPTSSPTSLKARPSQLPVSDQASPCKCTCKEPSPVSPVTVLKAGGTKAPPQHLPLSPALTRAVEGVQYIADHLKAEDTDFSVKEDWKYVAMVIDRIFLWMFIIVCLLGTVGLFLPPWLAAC
nAChRs comprised of α4 and β2 subunits, sequence (P12390 25-500): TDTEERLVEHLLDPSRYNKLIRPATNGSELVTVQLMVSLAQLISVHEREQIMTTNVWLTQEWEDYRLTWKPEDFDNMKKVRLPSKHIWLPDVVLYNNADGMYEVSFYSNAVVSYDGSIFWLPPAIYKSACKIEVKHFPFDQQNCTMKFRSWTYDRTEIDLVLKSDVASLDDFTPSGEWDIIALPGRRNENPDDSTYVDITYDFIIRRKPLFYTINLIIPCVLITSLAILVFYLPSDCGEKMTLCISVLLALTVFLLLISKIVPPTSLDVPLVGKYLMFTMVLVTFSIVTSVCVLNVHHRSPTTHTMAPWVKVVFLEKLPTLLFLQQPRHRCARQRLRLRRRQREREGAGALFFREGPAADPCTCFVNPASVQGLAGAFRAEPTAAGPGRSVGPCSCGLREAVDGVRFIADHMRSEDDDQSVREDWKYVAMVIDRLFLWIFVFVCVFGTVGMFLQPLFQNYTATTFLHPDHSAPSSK

`C1=C(c2cccnc2)CC2CCCC1N2Cc1ccccc1.O=C(O)/C=C/C(=O)O` (racemic) registered a melting point of 186 to 187 °C.

The compound `CN1C2C=C(c3ccc4c(c3)OCO4)CC1CCC2.O=C(O)/C=C/C(=O)O` (racemic) displayed a melting point of 159 to 163 °C. Still for that read-out and setting: the figure for `CN1C2C=C(c3cccc4ncccc34)CC1CCC2` (racemic) is 142 to 144 °C.

The compound `CN1C2C=C(c3nc4ccccc4s3)CC1CCC2.O=C(O)/C=C/C(=O)O` (racemic) registered a melting point of 176 to 177 °C. Same read-out and setting: the same measure for `COc1cncc(C2=CC3CCCC(C2)N3C)c1` (racemic) (as salt: fumaric acid salt) [Compound 2a, (±)-3-[3-(5-Methoxy)-pyridyl]-9-methyl-9-azabicyclo[3.3.1]non-2-ene Fumaric Acid Salt]: 125 to 126.5 °C. The compound `CN1C2C=C(c3cncc(-c4ccccc4)c3)CC1CCC2` (racemic) (as salt: fumaric acid salt) [Compound 3a, (±)-9-Methyl-3-[3-(5-phenyl)-pyridyl]-9-azabicyclo[3.3.1]non-2-ene Fumaric Acid Salt] had a melting point of 147.5 to 149.5 °C. As to `COc1ccc(C2=CC3CCCC(C2)N3C)cn1` (racemic) (as salt: fumaric acid salt) [Compound 5b, (±)-3-[3-(6-Methoxy)-pyridyl)]-9-methyl-9-azabicyclo[3.3.1]non-2-ene Fumaric Acid Salt], the melting point lay within 116 to 124 °C. Still for that read-out and setting: the figure for `C1=C(c2cccnc2)CC2CCCC1N2` (racemic) (as salt: fumaric acid salt) [Compound 11c, (±)-9-H-3-(3-Pyridyl)-9-azabicyclo[3.3.1]oct-2-ene Fumaric Acid Salt] is 188.5 to 190 °C; for `CN1C2C=C(c3ccc4ccccc4c3)CC1CCC2` (racemic) (as salt: oxalic acid salt) [Compound 8c, (±)-3-(2-Naphtyl)-9-methyl-9-azabicyclo[3.3.1]non-2-ene Oxalic Acid Salt] it is 87.9 to 92.2 °C.

With `CN1C2C=C(c3cccn3C)CC1CCC2` (racemic) [Compound 1d, (±)-3-[2-(1-Methyl-pyrrolyl)]-9-methyl-9-azabicyclo[3.3.1]non-2-ene], the half-inhibitory concentration (IC50) is 1900 nM in series [1] (read-out: 3H-α-bungarotoxin IC50) and 1800 nM in series [2].

For `CN1C2C=C(c3cc4ccccc4o3)CC1CCC2.O=C(O)/C=C/C(=O)O` (racemic) [Compound 7c, (±)-3-(2-Benzofuryl)-9-methyl-9-azabicyclo[3.3.1]non-2-ene Fumaric Acid Salt], the melting point was in the range of 184 to 186 °C. The compound further came in with a concentration for half-maximal inhibition (IC50) in series [1] of 190 nM. Besides, the IC50 in series [2] (rat cerebral cortex homogenate, 1 nM 3H-cytisine, 90 min at 2° C., read-out: 3H-cytisine IC50) was greater than 300000 nM.

The values are drawn from patent US6392045B1, “9-azobicyclo[3.3.1] non-2-ene derivatives as cholinergic ligands at nicotinic ACH receptors” (NeuroSearch A/S, priority 1997, dated 2002).
